# In PMC11515993, “ZSTK474 targeting PIK3R3 inhibits the Wilms’ tumor through G0 / G1 phase arrest” (PLOS ONE, 2024):
# What was measured:
# WiT49 and WT-CLS1 cells [1] = test: CCK-8 growth curves; format: cell-based; details: 1/2, 1 and 2 times IC50; 0, 24, 48, 72 hours
# Method: (§1) The assessment of cell proliferation was conducted utilizing the CCK-8 assay sourced from MCE (HY-K0301, USA). Following detachment utilizing 0.25% trypsin, WiT49 (2.5×10^3) and WT-CLS1 (3×10^3) cells were cultured in 96-well plates. Following adhesion, cells were subjected to varying doses of ZSTK474 (0–32 μM) for a duration of 48 hours. Following a 2-hour incubation with culture medium (90 μL) and CCK-8 reagent (10 μL) at 37°C, the measurement of the absorbance at 450 nm was conducted to measure the IC50 value of ZSTK474. Following this, the cells were treated with ZSTK474 at concentrations equivalent to 1/2, 1, and 2 times the IC50 value. Growth curves were subsequently plotted at 0, 24, 48, and 72 hours post-incubation.
# WiT49 and WT-CLS1 cells [2] = test: Wound healing (scratch) cell migration assay; format: cell-based; details: 0, 24, 48 hours, serum-free medium
# Method: WT cells (2×10^5 cells per well) were cultured in 6-well plates in a 5% CO2 environment at 37°C until confluence was achieved. A consistent wound was generated on the cellular surface, and any detached cells were eliminated using PBS. After this, WiT49 and WT-CLS1 cells were subjected to varying concentrations of ZSTK474 in a serum-free DEME medium. After a 48-hour incubation, cell migration was assessed at 0, 24, and 48 hours under a Nikon microscope. The scratch width measurement was performed using ImageJ.
# WT-CLS1 cells [3] = test: RT-PCR of NRG4, CDKN1A, FGF18, PIK3R3, PDGFRB; format: cell-based; details: among the five genes
# Method: Total RNA was extracted from WiT49 and WT-CLS1 cells utilizing TRIzol reagent (Invitrogen, CA, USA) and subsequently subjected to RT-PCR following the protocols of RTMasterMix (MCE, NJ, USA). Utilizing the SYBR Green RT-PCR Master Mix from MCE in NJ, USA, mRNA quantification was conducted on the Bio-Rad CFX ConnectTM Real-Time System. The relative expressions of NRG4, CDKN1A, FGF18, PIK3R3, and PDGFRB were measured using GAPDH as the internal reference gene.
# WiT49 and WT-CLS1 cells [4] = test: TUNEL assay; format: cell-based; details: 48 hours, low, medium and high dose
# Method: In WT cells, apoptosis-induced DNA damage was identified through TUNEL staining in the low, medium, and high-dose intervention groups. After a 12-hour incubation in 24-well plates, cells were treated with varying concentrations of ZSTK474 for 48 hours. The cells were then subjected to TUNEL staining according to the manufacturer’s instructions. The cell nuclei were counterstained with DAPI and then mounted utilizing an anti-fade mounting medium. The Nikon C2 microscope was employed for image acquisition.
# WiT49 and WT-CLS1 cells [5] = test: Western blot of treated WT cells; format: cell-based
# Method: The protein lysis solution containing 1% PMSF was used to lyse both WiT49 and WT-CLS1 cells treated with ZSTK474. After centrifugation at 12000g for 20 minutes, the protein content was quantified using a BCA assay kit (Thermo, China). Subsequently, 10 μg of protein underwent electrophoresis on a 6%-12.5% SDS-PAGE gel (EpiZyme, China) and was then transferred to a PVDF membrane (Millipore, ISEQ00010, USA) via semi-dry electrotransfer. After three TBST washes, the PVDF membranes were exposed to primary antibodies (Akt, MMP2, MMP9, PI3K, p-PI3K, p-Akt, PCNA, VEGF, P21, CyclinD, CDK4, GAPDH from ZENBIO, Chengdu, China; PIK3R3 from Proteintech, Wuhan, China) overnight at a 1:1000 dilution and 4°C. After being washed three times in TBST, the PVDF membrane was incubated with secondary antibodies (1:20000, ZENBIO, China) for one hour at room temperature. The Bio-RAD analyzer and Image Lab software were utilized for imaging and analysis.
# WiT49 cells [6] = test: Annexin V apoptosis flow cytometry; format: cell-based; details: WiT49, 48 hours, IC50 dose
# Method: (§2) The assessment of apoptosis was carried out using the Annexin V Apoptosis Kit (BDPharmingen, 5565547, USA). WiT49 and WT-CLS1 cells were cultured in 6-well plates for 12 hours. Subsequently, they were exposed to different concentrations of ZSTK474 for 48 hours and then analyzed using flow cytometry. FlowJo 10.8.1 software was utilized for data analysis.
# WT-CLS1 cells [7] = test: Annexin V apoptosis flow cytometry; format: cell-based; details: WT-CLS1, 48 hours, IC50 dose
# Method: as §2
# [8] = In vivo safety in WiT49 tumor-bearing mice (body weight, blood and serum tests, organ HE staining); details: two weeks; for ALT / AST / BUN / CK / CRE: tumor-bearing nude mice
# Method: (§3) The in vivo experiments were approved by the Institutional Animal Care and Use Committee of Chongqing Medical University (approval number: CHCMU-IACUC20220323001). After being sourced from the Animal Research Center at Chongqing Medical University, BALB/C nude mice (male, 3 weeks old) were housed in stainless steel cages in a ventilated animal room. The room temperature in the housing facility was maintained at 24°C, with a relative humidity of 60% and a 12-h light/dark cycle. Distilled water and sterilized food were available ad libitum. The mice were acclimated for a week. Injection of 2×10^6 WiT49 cells, suspended in 100μL of DMEM, into the left axilla of the mice was used to induce subcutaneous nephroblastoma xenograft tumors. Once the tumor volume reached 90–100 mm^3, the mice were segregated into four groups (n = 6 in each group). Except for one control group that was given PBS, three groups were given daily doses of ZSTK474 (MCE, China) at 25, 50, and 100 mg/kg over a two-week period. Tumor size and body weight of tumor-bearing mice were monitored throughout the study, and no mice died before meeting criteria for euthanasia. The mice were anaesthetised using 3% isoflurane, blood was taken from the eye socket and then executed by decapitation. Standard blood tests and serum analyses were performed to evaluate toxicity, focusing on liver, cardiac, and renal markers for tumor-bearing mice of each group. Tumor weights were recorded, and samples of various organs and tumors were collected for further analysis.
# Fresh tumor samples were fixed in paraformaldehyde for 72 hours. The samples were processed through paraffin embedding and subsequently sectioned at a thickness of 4 μm. The subsequent procedures comprised hydration with xylene and alcohol, staining with hematoxylin and eosin, and dehydration through immersion in graded alcohol and xylene. Subsequently, images were acquired using light microscopy from Nikon, Japan.
# WiT49 cells [9] = test: CCK-8 cell proliferation assay (IC50); format: cell-based; details: 48-hour treatment
# Method: as §1
# WT-CLS1 cells [10] = test: CCK-8 cell proliferation assay (IC50); format: cell-based; details: 48-hour treatment
# Method: as §1
# [11] = test system: WiT49 subcutaneous nephroblastoma xenograft tumors; test: Subcutaneous nephroblastoma xenograft tumor growth and tumor immunofluorescence; format: in vivo, BALB/C nude mice
# Method: as §3, with “analysis. Following fixation in 4% paraformaldehyde for more than 24 hours, tumor tissues underwent dehydration and paraffin embedding and were then sectioned into 4-μm slices. The sections were then subjected to thermal antigen retrieval by treating them with sodium citrate buffer and subsequently exposing them to microwave radiation. Following dewaxing, the sections were blocked using 0.5% bovine serum albumin (BSA) and left to incubate with primary antibodies overnight at 4°C. […]” for “analysis.”
# WiT49 and WT-CLS1 cells [12] = test: Transwell cell invasiveness assay; format: cell-based; details: 24 and 48 hours
# Method: The assessment of cell invasiveness was performed through a Transwell assay on plates coated with matrix gel. When seeded on plates, WiT49 and WT-CLS1 cells were positioned in the […] with a 10% FBS medium, while different concentrations of ZSTK474 in a serum-free medium were placed in the upper chamber. Cells were fixed and stained with crystal violet after 24 and 48 hours of treatment. Cell invasiveness was quantified using ImageJ software while observing under a light microscope.
# [13] = design: method as in PMID 16622124; details: chronic oral administration, 800 mg/kg, cited from earlier work
# WiT49 and WT-CLS1 cells [14] = test: Cell cycle assay by flow cytometry; format: cell-based; details: different concentrations, 48 hours
# Method: The assessment of cell cycle progression after exposure to different concentrations of ZSTK474 was conducted using the BD Cell Cycle Assay Kit from Dojindo, Japan. In accordance with standardized procedures, WT-CLS1 and WiT49 cells were cultured for 48 hours, then fixed in 75% ethanol for an additional 48 hours. Following this, the cells were centrifuged, resuspended twice in PBS, and stained with propidium iodide and RNase at 37°C for 30 minutes. Lastly, cell cycle distribution was assessed through flow cytometry.
compound,measurement,setting,value
FC(F)c1nc2ccccc2n1-c1nc(N2CCOCC2)nc(N2CCOCC2)n1 [ZSTK474],cell growth (proliferation curve),WiT49 and WT-CLS1 cells [1],dose-dependent suppression of cell growth
same,cell migration (scratch assay),WiT49 and WT-CLS1 cells [2],reduced migration rates
same,PIK3R3 RNA level (RT-PCR),WT-CLS1 cells [3],most pronounced downregulation
same,apoptosis-induced DNA damage (TUNEL),WiT49 and WT-CLS1 cells [4],late apoptotic DNA damage response
same,"expression levels of PCNA, MMP2, MMP9 and VEGF (Western blot)",WiT49 and WT-CLS1 cells [5]; WT cells,lowered expression levels
same,p-PI3K/PI3K and p-Akt/Akt (Western blot),WiT49 and WT-CLS1 cells [5]; WT cells,reduced levels
same,P21 expression (Western blot),WiT49 and WT-CLS1 cells [5]; WiT49 and WT-CLS1,elevation in P21 expression
same,cyclin D and CDK4 levels (Western blot),WiT49 and WT-CLS1 cells [5]; WiT49 and WT-CLS1,reduction in cyclin D and CDK4 levels
same,rise in apoptotic cells compared to the controls,WiT49 cells [6],20%
same,rise in apoptotic cells compared to the controls,WT-CLS1 cells [7],below 10%
same,ALT,[8]; 25 mg/kg daily,69.7(44.7–96.9)
same,AST,[8]; 25 mg/kg daily,117.5 (95.8–153.7)
same,BUN,[8]; 25 mg/kg daily,8.3(5.6–10.6)
same,CK,[8]; 25 mg/kg daily,1084.2 (1029.0–1145.0)
same,CRE,[8]; 25 mg/kg daily,13.0(11.0–15.0)
same,ALT,[8]; 50 mg/kg daily,62.6(48.1–88.2)
same,AST,[8]; 50 mg/kg daily,126.1 (99.4–174.1)
same,BUN,[8]; 50 mg/kg daily,7.7(5.1–10.8)
same,CK,[8]; 50 mg/kg daily,1009.5 (793.0–1141.0)
same,CRE,[8]; 50 mg/kg daily,12.7(11.0–14.0)
same,ALT,[8]; 100 mg/kg daily,60.6(50.4–76.5)
same,AST,[8]; 100 mg/kg daily,130.4 (97.7–173.1)
same,BUN,[8]; 100 mg/kg daily,7.3(5.1–10.1)
same,CK,[8]; 100 mg/kg daily,952.5 (637.0–1135.0)
same,CRE,[8]; 100 mg/kg daily,12.5(10.0–15.0)
same,hematological indices and organ pathology examination vs control,"[8]; 25, 50, 100 mg/kg daily",no notable variances
same,post-administration body weight changes vs PBS control,"[8]; 25, 50, 100 mg/kg daily",no significant differences
same,IC50,WiT49 cells [9],2000 nM
same,IC50,WT-CLS1 cells [10],2510 nM
same,"levels of PCNA, MMP2, MMP9 and VEGF in tumor tissues (immunofluorescence)","[11]; 25, 50 and 100 mg/kg",markedly reduced
same,subcutaneous tumor volume vs control,"[11]; day 5, high-dose treatment group",initial reductions in tumor volume
same,subcutaneous tumor volume vs control,"[11]; day 11, treatment group",notable reduction in tumor volumes
same,invasion capacity (Transwell),WiT49 and WT-CLS1 cells [12],decrease in invasion capacity
same,weight loss,[13]; by day 28,14%
same,dermal toxicity,[13]; more than 28 days,did not result in any dermal toxicity
same,toxic damage to vital organs,[13]; more than 28 days,no evidence of toxic damage to vital organs
same,percentage of cells in the G0/G1 phase,WiT49 and WT-CLS1 cells [14],significant rise in the percentage of cells in the G0/G1 phase
